The numbers were not newly measured in patent US10172811B2, “Topical antifungal composition for treating onychomycosis” (Polichem S.A., priority 2013, dated 2019), which cites them from elsewhere.

The subject of data set [1] is onychomycosis. As to conditions: topical nail formulation; 48 weeks daily treatment, 12-week follow up.
The test system of data set [2] is onychomycosis. The note with it: oral.

In the case of `Cc1cc(C2CCCCC2)n(O)c(=O)c1` [ciclopirox], in data set [1], the Complete cure result is listed as “about 13%” and the Responders is given as about 30%.
On to `CN(C/C=C/C#CC(C)(C)C)Cc1cccc2ccccc12` [terbinafine], for which the “Complete cure, proportion of patients” value in data set [2] was 38%.
